# Reference: the NIST ThermoML archive (doi:10.1016/j.jct.2016.01.019)
# Numbers after ± are expanded uncertainties.
# Assay: refractive index (other wavelength) (dimensionless)
# Conditions: 94.64 kPa, Liquid, Standard Abbe refractometry
smiles,measurement,setting,value
"CC(O)CO (stereo not drawn) [1,2-propanediol]",refractive index,"293.15 K, Wavelength=404.7 nm",1.445 ± 0.002
same,refractive index,"293.15 K, Wavelength=435.8 nm",1.44204 ± 0.002
same,refractive index,"293.15 K, Wavelength=486.1 nm",1.43722 ± 0.002
same,refractive index,"293.15 K, Wavelength=546.1 nm",1.43406 ± 0.002
same,refractive index,"293.15 K, Wavelength=587.6 nm",1.43227 ± 0.002
same,refractive index,"293.15 K, Wavelength=632.8 nm",1.43023 ± 0.002
same,refractive index,"293.15 K, Wavelength=644 nm",1.43008 ± 0.002
same,refractive index,"293.15 K, Wavelength=706.5 nm",1.42866 ± 0.002
same,refractive index,"298.15 K, Wavelength=404.7 nm",1.4429 ± 0.002
same,refractive index,"298.15 K, Wavelength=435.8 nm",1.43967 ± 0.002
same,refractive index,"298.15 K, Wavelength=486.1 nm",1.43566 ± 0.002
same,refractive index,"298.15 K, Wavelength=546.1 nm",1.43245 ± 0.002
same,refractive index,"298.15 K, Wavelength=587.6 nm",1.4305 ± 0.002
same,refractive index,"298.15 K, Wavelength=632.8 nm",1.429 ± 0.002
same,refractive index,"298.15 K, Wavelength=644 nm",1.4289 ± 0.002
same,refractive index,"298.15 K, Wavelength=706.5 nm",1.42701 ± 0.002
same,refractive index,"303.15 K, Wavelength=404.7 nm",1.44135 ± 0.002
same,refractive index,"303.15 K, Wavelength=435.8 nm",1.43785 ± 0.002
same,refractive index,"303.15 K, Wavelength=486.1 nm",1.43417 ± 0.002
same,refractive index,"303.15 K, Wavelength=546.1 nm",1.43096 ± 0.002
same,refractive index,"303.15 K, Wavelength=587.6 nm",1.42927 ± 0.002
same,refractive index,"303.15 K, Wavelength=632.8 nm",1.42774 ± 0.002
same,refractive index,"303.15 K, Wavelength=644 nm",1.42734 ± 0.002
same,refractive index,"303.15 K, Wavelength=706.5 nm",1.42571 ± 0.002
same,refractive index,"308.15 K, Wavelength=404.7 nm",1.43955 ± 0.002
same,refractive index,"308.15 K, Wavelength=435.8 nm",1.43622 ± 0.002
same,refractive index,"308.15 K, Wavelength=486.1 nm",1.43239 ± 0.002
same,refractive index,"308.15 K, Wavelength=546.1 nm",1.42919 ± 0.002
same,refractive index,"308.15 K, Wavelength=587.6 nm",1.42752 ± 0.002
same,refractive index,"308.15 K, Wavelength=632.8 nm",1.426 ± 0.002
same,refractive index,"308.15 K, Wavelength=644 nm",1.42565 ± 0.002
same,refractive index,"308.15 K, Wavelength=706.5 nm",1.42397 ± 0.002
same,refractive index,"313.15 K, Wavelength=404.7 nm",1.43771 ± 0.002
same,refractive index,"313.15 K, Wavelength=435.8 nm",1.43437 ± 0.002
same,refractive index,"313.15 K, Wavelength=486.1 nm",1.43055 ± 0.002
same,refractive index,"313.15 K, Wavelength=546.1 nm",1.42738 ± 0.002
same,refractive index,"313.15 K, Wavelength=587.6 nm",1.42572 ± 0.002
same,refractive index,"313.15 K, Wavelength=632.8 nm",1.4242 ± 0.002
same,refractive index,"313.15 K, Wavelength=644 nm",1.42386 ± 0.002
same,refractive index,"313.15 K, Wavelength=706.5 nm",1.42219 ± 0.002
same,refractive index,"318.15 K, Wavelength=404.7 nm",1.43584 ± 0.002
same,refractive index,"318.15 K, Wavelength=435.8 nm",1.43252 ± 0.002
same,refractive index,"318.15 K, Wavelength=486.1 nm",1.42875 ± 0.002
same,refractive index,"318.15 K, Wavelength=546.1 nm",1.42557 ± 0.002
same,refractive index,"318.15 K, Wavelength=587.6 nm",1.42392 ± 0.002
same,refractive index,"318.15 K, Wavelength=632.8 nm",1.42243 ± 0.002
same,refractive index,"318.15 K, Wavelength=644 nm",1.42208 ± 0.002
same,refractive index,"318.15 K, Wavelength=706.5 nm",1.42043 ± 0.002
